Where “and” joins values, the source holds several entries; their conditions need not be identical. Identical values can stand only once.

In ChEMBL document CHEMBL1122067, “Species- or isozyme-specific enzyme inhibitors. 4. Design of a two-site inhibitor of adenylate kinase with isozyme selectivity” (J Med Chem, 1982) one finds Ki and Inhibition constant data, which are given here for 9 compounds.

Assay [1] is described as follows: Non-competitive binding inhibition constant (Ki) of rat adenylate kinase (AK) isozymes was determined.
Assay [2] concerns the target T1, GTP:AMP phosphotransferase AK3, mitochondrial (Rattus norvegicus, UniProt P29411). The assay can be described thus: Competitive binding inhibition constant of rat Adenylate kinase III was determined.
Assay [3] can be described thus: Competitive binding inhibition constant (Ki) of rat adenylate kinase (AK) isozymes was determined.
The target of assay [4] is T2, Adenylate kinase 2, mitochondrial (Rattus norvegicus, UniProt P29410). The assay can be described thus: Non competitive binding inhibition constant (Ki) of rat adenylate kinase (AK II) isozymes was determined.
The target of assay [5] is T1, GTP:AMP phosphotransferase AK3, mitochondrial. The assay is described as follows: Non competitive binding inhibition of rat adenylate kinase IIl was determined.
Assay [6] can be described thus: Non competitive binding inhibition constant (Ki) of rat adenylate kinase (AK) isozymes was determined.
Assay [7] deals with T1, GTP:AMP phosphotransferase AK3, mitochondrial. The assay is described as follows: Competitive binding inhibition constant of rat adenylate kinase IIl was determined.
The nature of assay [8]: Non competitive binding inhibition constant(Ki) of rat adenylate kinase (AK) isozymes was determined.
Assay [9] addresses T1, GTP:AMP phosphotransferase AK3, mitochondrial. The assay is described as follows: Non competitive binding inhibition constant of rat aAdenylate kinase III was determined.
The nature of assay [10]: Non-competitive binding inhibition constant(Ki) of rat adenylate kinase (AK) isozymes was determined.
The target of assay [11] is T2, Adenylate kinase 2, mitochondrial. The assay can be described thus: Competitive binding inhibition constant(Ki) of rat adenylate kinase (AK II) isozymes was determined.
The nature of assay [12]: Ability to inhibit the rat muscle adenylate kinase isozyme in competition with the AMP varied.
A short description of assay [13]: Ability to inhibit the rat muscle adenylate kinase isozyme in competition with the ATP varied.
Assay [14] deals with T2, Adenylate kinase 2, mitochondrial. The assay is described as follows: Ability to inhibit the rat muscle adenylate kinase (AK II) isozyme in competition with the AMP varied. The settings on record: in the assay text read “rat liver” for “rat muscle”.
The target in assay [15] is T1, GTP:AMP phosphotransferase AK3, mitochondrial. The assay can be described thus: Ability to inhibit the rat muscle adenylate kinase lII in competition with the AMP varied. The settings on record: in the assay text read “rat liver adenylate kinase III” for “rat muscle adenylate kinase lII”.
Assay [16] concerns the target T2, Adenylate kinase 2, mitochondrial. The assay is described as follows: Ability to inhibit the rat muscle adenylate kinase (AK II) isozyme in competition with the ATP varied. The following applies: in the assay text read “rat liver” for “rat muscle”.
The target is the same in assay [17]. The assay can be described thus: Ability to inhibit the rat muscle adenylate kinase(AK II) isozyme in competition with the AMP varied. The settings on record: in the assay text read “rat liver” for “rat muscle”.
For assay [18] the target is unchanged. The assay can be described thus: Ability to inhibit the rat muscle adenylate kinase(AK II) isozyme in competition with the ATP varied. The settings on record: in the assay text read “rat liver” for “rat muscle”.

T1 sequence (P29411 whole entry): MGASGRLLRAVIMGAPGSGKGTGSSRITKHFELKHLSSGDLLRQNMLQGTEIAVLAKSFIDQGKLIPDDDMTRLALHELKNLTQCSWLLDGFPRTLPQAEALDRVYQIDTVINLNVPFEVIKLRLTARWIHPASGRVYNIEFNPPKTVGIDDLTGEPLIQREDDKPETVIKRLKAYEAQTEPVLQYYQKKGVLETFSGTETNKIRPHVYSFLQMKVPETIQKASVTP

As to `CC(=O)NCCCCCCNc1ncnc2c1ncn2C1O[C@H](COP(=O)(O)OP(=O)(O)OP(=O)(O)O)[C@@H](O)[C@H]1O` (some centres not stated), the figures for the Ki in assay [1] and in [2] were 12.9 mM and 4.8 mM, respectively.

With `CCCCN(CCCC)c1ncnc2c1ncn2C1O[C@H](COP(=O)(O)OP(=O)(O)OP(=O)(O)O)[C@@H](O)[C@H]1O` (some centres not stated), the Ki was found to be 2 mM in [3] and 3 mM in assay [2].

With `CC(=O)NCCCCCCCCNc1ncnc2c1ncn2C1O[C@H](COP(=O)(O)O)[C@@H](O)[C@H]1O` (some centres not stated), the Ki in [4] was 12.6 mM; in [5], 14 mM; in [6], 4.8 mM.

For `O=C(CI)NCCCCCNc1ncnc2c1ncn2C1O[C@H](COP(=O)(O)OP(=O)(O)OP(=O)(O)O)[C@@H](O)[C@H]1O` (some centres not stated), the Ki in [1] is 6 mM; in assay [7], 6.2 mM.

As to `CC(=O)NCCNc1ncnc2c1ncn2C1O[C@H](COP(=O)(O)O)[C@@H](O)[C@H]1O` (some centres not stated), the Ki turned out to be 11.4 mM in [4], 3.1 mM in assay [8] and 12.4 mM in assay [9].

Consider `CCCSc1nc2c(N)ncnc2n1[C@@H]1O[C@H](COP(=O)(O)OP(=O)(O)OP(=O)(O)O)[C@@H](O)[C@H]1O`, for which the Ki is 0.07 mM in [2], 6.2 mM in assay [10] and 0.06 mM in assay [11].

With `Nc1ncnc2c1nc(Sc1ccccc1)n2[C@@H]1O[C@H](COP(=O)(O)OP(=O)(O)OP(=O)(O)O)[C@@H](O)[C@H]1O`, the Ki came to 4 mM in [1] and 0.32 mM in [2].

With `Nc1ncnc2c1ncn2[C@@H]1O[C@H](COP(=O)(O)OP(=O)(O)OP(=O)(O)OP(=O)(O)OP(=O)(O)OC[C@H]2O[C@@H](n3cnc4c(N)ncnc43)[C@H](O)[C@@H]2O)[C@@H](O)[C@H]1O`, the Inhibition constant in [12] amounted to 0.26 µM; in [13], 0.26 µM; in assay [14] it was 0.28 µM; in [15] it was 0.3 µM; in assay [16], 0.3 µM.

In the case of `CCSc1nc2c(N)ncnc2n1C1O[C@H](COP(=O)(O)OP(=O)(O)OP(=O)(O)OP(=O)(O)OP(=O)(O)OC[C@H]2OC(n3cnc4c(N)ncnc43)[C@H](O)[C@@H]2O)[C@@H](O)[C@H]1O` (some centres not stated), the Inhibition constant is 3.5 µM in assay [12]; 0.06 µM in [17]; 3 µM in [13]; 0.08 µM and 0.07 µM in assay [15]; 0.08 µM in [18].

One may read the Ki as the equilibrium dissociation constant of an inhibitor or competing ligand from its target.
